According to PubChem BioAssay (NCI):
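Where inhibition never reached the appropriate level, the endpoint shown equals the highest concentration tested. Otherwise, values were interpolated linearly from a five-concentration, 48-hour dose response in 96-well plates. GI50 = concentration required for 50% inhibition of growth. TGI denotes the concentration required for complete inhibition of growth.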

How the values were obtained:
Assay in all cases: growth of human tumour cells (NCI), 48 h
BT-549 breast = tested on: BT-549 breast
OVCAR-4 ovarian = tested on: OVCAR-4 ovarian
HOP-62 NSCLC = tested on: HOP-62 NSCLC
CAKI-1 renal = tested on: CAKI-1 renal
HL-60(TB) leukemia = tested on: HL-60(TB) leukemia
A549 NSCLC = tested on: A549 NSCLC
HCT-15 colon = tested on: HCT-15 colon
KM12 colon = tested on: KM12 colon
COLO 205 colon = tested on: COLO 205 colon
MALME-3M melanoma = tested on: MALME-3M melanoma
HCC-2998 colon = tested on: HCC-2998 colon
RPMI-8226 leukemia = tested on: RPMI-8226 leukemia
TK-10 renal = tested on: TK-10 renal
T-47D breast = tested on: T-47D breast
M14 melanoma = tested on: M14 melanoma
MDA-MB-435 = tested on: MDA-MB-435
SNB-75 CNS = tested on: SNB-75 CNS
OVCAR-8 ovarian = tested on: OVCAR-8 ovarian
UACC-62 melanoma = tested on: UACC-62 melanoma
DU-145 prostate = tested on: DU-145 prostate
CCRF-CEM leukemia = tested on: CCRF-CEM leukemia
OVCAR-3 ovarian = tested on: OVCAR-3 ovarian
K-562 leukemia = tested on: K-562 leukemia
A498 renal = tested on: A498 renal
HS 578T breast = tested on: HS 578T breast
RXF 393 renal = tested on: RXF 393 renal
IGROV1 ovarian = tested on: IGROV1 ovarian
SK-MEL-28 melanoma = tested on: SK-MEL-28 melanoma
NCI-H460 lung = tested on: NCI-H460 lung
MOLT-4 leukemia = tested on: MOLT-4 leukemia
SNB-19 CNS = tested on: SNB-19 CNS
ACHN renal = tested on: ACHN renal
MCF7 breast = tested on: MCF7 breast
NCI-H23 lung = tested on: NCI-H23 lung
UACC-257 melanoma = tested on: UACC-257 melanoma
SR leukemia = tested on: SR leukemia
SK-MEL-2 melanoma = tested on: SK-MEL-2 melanoma
NCI-H226 lung = tested on: NCI-H226 lung
HT29 colon = tested on: HT29 colon
SN12C renal = tested on: SN12C renal
LOX IMVI melanoma = tested on: LOX IMVI melanoma
HCT-116 colon = tested on: HCT-116 colon
NCI-H522 lung = tested on: NCI-H522 lung
OVCAR-5 ovarian = tested on: OVCAR-5 ovarian
PC-3 prostate = tested on: PC-3 prostate
SF-295 CNS = tested on: SF-295 CNS
EKVX NSCLC = tested on: EKVX NSCLC
SF-539 CNS = tested on: SF-539 CNS
NCI/ADR-RES ovarian = tested on: NCI/ADR-RES ovarian
HOP-92 NSCLC = tested on: HOP-92 NSCLC
MDA-MB-231 breast = tested on: MDA-MB-231 breast
SK-OV-3 ovarian = tested on: SK-OV-3 ovarian
SW-620 colon = tested on: SW-620 colon
UO-31 renal = tested on: UO-31 renal
786-0 renal = tested on: 786-0 renal
SK-MEL-5 melanoma = tested on: SK-MEL-5 melanoma
U251 CNS = tested on: U251 CNS
SF-268 CNS = tested on: SF-268 CNS

COc1cc(C(=O)/C=C/c2c(C)n([O-])c3ccc(C(F)(F)F)cc3[n+]2=O)cc(OC)c1OC
GI50 (BT-549 breast): 8.34 µM
TGI (BT-549 breast): 25.6 µM
GI50 (OVCAR-4 ovarian): 7.1 µM
TGI (OVCAR-4 ovarian): > 100 µM
GI50 (HOP-62 NSCLC): 25.2 µM
TGI (HOP-62 NSCLC): > 100 µM
GI50 (CAKI-1 renal): 3.32 µM
TGI (CAKI-1 renal): > 38.1 µM
GI50 (HL-60(TB) leukemia): 2.92 µM
TGI (HL-60(TB) leukemia): 7.89 µM
GI50 (A549 NSCLC): 19.8 µM
TGI (A549 NSCLC): > 93.3 µM
GI50 (HCT-15 colon): 3.55 µM
TGI (HCT-15 colon): 24.2 µM
GI50 (KM12 colon): 13.5 µM
TGI (KM12 colon): 34.3 µM
GI50 (COLO 205 colon): 1.43 µM
TGI (COLO 205 colon): 2.88 µM
GI50 (MALME-3M melanoma): 1.74 µM
TGI (MALME-3M melanoma): 4.19 µM
GI50 (HCC-2998 colon): 15.5 µM
TGI (HCC-2998 colon): 35.7 µM
GI50 (RPMI-8226 leukemia): 5.23 µM
TGI (RPMI-8226 leukemia): 48.9 µM
GI50 (TK-10 renal): 1.41 µM
TGI (TK-10 renal): 2.82 µM
GI50 (T-47D breast): 2.15 µM
TGI (T-47D breast): 7.83 µM
GI50 (M14 melanoma): 2.42 µM
TGI (M14 melanoma): 8.46 µM
GI50 (MDA-MB-435): 3.15 µM
TGI (MDA-MB-435): 15.8 µM
GI50 (SNB-75 CNS): 10.9 µM
TGI (SNB-75 CNS): 24.6 µM
GI50 (OVCAR-8 ovarian): 2.99 µM
TGI (OVCAR-8 ovarian): > 31.1 µM
GI50 (UACC-62 melanoma): 3.62 µM
TGI (UACC-62 melanoma): 13.8 µM
GI50 (DU-145 prostate): 4.11 µM
TGI (DU-145 prostate): 14.3 µM
GI50 (CCRF-CEM leukemia): 0.564 µM
TGI (CCRF-CEM leukemia): > 100 µM
GI50 (OVCAR-3 ovarian): 1.37 µM
TGI (OVCAR-3 ovarian): 3.07 µM
GI50 (K-562 leukemia): 1.65 µM
TGI (K-562 leukemia): 5.85 µM
GI50 (A498 renal): 14.5 µM
TGI (A498 renal): 51.7 µM
GI50 (HS 578T breast): 7.55 µM
TGI (HS 578T breast): > 77.8 µM
GI50 (RXF 393 renal): 1.44 µM
TGI (RXF 393 renal): 2.86 µM
GI50 (IGROV1 ovarian): 7.54 µM
TGI (IGROV1 ovarian): 48.4 µM
GI50 (SK-MEL-28 melanoma): 7.62 µM
TGI (SK-MEL-28 melanoma): 23.6 µM
GI50 (NCI-H460 lung): 10.7 µM
TGI (NCI-H460 lung): 29.1 µM
GI50 (MOLT-4 leukemia): 1.75 µM
TGI (MOLT-4 leukemia): 5.11 µM
GI50 (SNB-19 CNS): 36.1 µM
TGI (SNB-19 CNS): > 100 µM
GI50 (ACHN renal): 1.49 µM
TGI (ACHN renal): 3.82 µM
GI50 (MCF7 breast): 4.26 µM
TGI (MCF7 breast): 17.3 µM
GI50 (NCI-H23 lung): 3.8 µM
TGI (NCI-H23 lung): 15.1 µM
GI50 (UACC-257 melanoma): 1.78 µM
TGI (UACC-257 melanoma): 3.94 µM
GI50 (SR leukemia): 2.67 µM
TGI (SR leukemia): > 100 µM
GI50 (SK-MEL-2 melanoma): 4 µM
TGI (SK-MEL-2 melanoma): 13.5 µM
GI50 (NCI-H226 lung): 15.1 µM
TGI (NCI-H226 lung): > 57.7 µM
GI50 (HT29 colon): 1.69 µM
TGI (HT29 colon): 3.99 µM
GI50 (SN12C renal): 6.89 µM
TGI (SN12C renal): > 100 µM
GI50 (LOX IMVI melanoma): 0.77 µM
TGI (LOX IMVI melanoma): 2.66 µM
GI50 (HCT-116 colon): 0.83 µM
TGI (HCT-116 colon): 2.51 µM
GI50 (NCI-H522 lung): 0.232 µM
TGI (NCI-H522 lung): 0.784 µM
GI50 (OVCAR-5 ovarian): 15.2 µM
TGI (OVCAR-5 ovarian): > 83.4 µM
GI50 (PC-3 prostate): 6.41 µM
TGI (PC-3 prostate): > 100 µM
GI50 (SF-295 CNS): 26.2 µM
TGI (SF-295 CNS): > 90.7 µM
GI50 (EKVX NSCLC): 21.4 µM
TGI (EKVX NSCLC): > 100 µM
GI50 (SF-539 CNS): 3.7 µM
TGI (SF-539 CNS): 15 µM
GI50 (NCI/ADR-RES ovarian): 3.54 µM
TGI (NCI/ADR-RES ovarian): 97.7 µM
GI50 (HOP-92 NSCLC): 3.04 µM
TGI (HOP-92 NSCLC): 21.3 µM
GI50 (MDA-MB-231 breast): 8.54 µM
TGI (MDA-MB-231 breast): > 79.3 µM
GI50 (SK-OV-3 ovarian): 27.1 µM
TGI (SK-OV-3 ovarian): > 100 µM
GI50 (SW-620 colon): 0.68 µM
TGI (SW-620 colon): 2.04 µM
GI50 (UO-31 renal): 1.45 µM
TGI (UO-31 renal): 3.51 µM
GI50 (786-0 renal): 1.96 µM
TGI (786-0 renal): 4.31 µM
GI50 (SK-MEL-5 melanoma): 17.6 µM
TGI (SK-MEL-5 melanoma): > 57.3 µM
GI50 (U251 CNS): 8.83 µM
TGI (U251 CNS): 24.1 µM
GI50 (SF-268 CNS): 12.8 µM
TGI (SF-268 CNS): 37.4 µM
